Assay results published in patent US20190225650A1, “PEPTIDOMIMETIC MACROCYCLES AND USE THEREOF IN REGULATING HIF1ALPHA” (AILERON THERAPEUTICS, INC., priority 2013, published 2019).
Bridge positions count the residues as written; N and C are the ends. Square brackets hold non-standard residues; d marks the D form. Peptide text beside a SMILES is read from it. S5 = C=CCCC[C@](C)(N)C(=O)O; Nle = CCCC[C@H](N)C(=O)O

Tested on: HRE-bla ME-180 cells
Assay: Reporter gene assay (HRE-bla ME-180 HIF reporter, GeneBLAzer)
Format: cell-based, human
Conditions: for EC50: 24 hour normoxia
Protocol: The following reagents were used:
• DMEM+GutaMAX: (#10569044, Invitrogen) • Black clear bottom plates: (#3603, Costar) • HRE-bla-ME-180 cell line: (#K1644, Invitrogen) • Gene-Blazer reagent & protocol: (#K1096, Invitrogen) • Plate reader: Biotek Synergy 2 • Chetomin: (C9623, Sigma)
4 hours prior to experiment: HRE-bla ME-180 cells were seeded at a density of 20,000 cells/well in a volume of 180 μl in black clear bottom 96-well plates. 180 μl of assay medium was added to the cell-free control wells. Incubation was conducted at 37° C., 5% CO2 for 4 hours.
Diluted chetomin was used as a positive control. Chetomin was diluted in 100% DMSO to a 10 mM stock concentration. A 1 mM stock of chetomin was prepared in 100% DMSO. Then the 1 mM chetomin stock was serially diluted in 1:4 in 100% DMSO. Finally, 50, 12.5, 3.125, 0.78, 0.2, 0.05 μM stock of chetomin in 5% DMSO/water were prepared by adding 114 μL water+6 μL chetomin in DMSO.
Test peptides were diluted before use. The test peptides were diluted in 100% DMSO to a 10 mM stock concentration. Then each 10 mM peptide stock was diluted in 1:3 in 100% DMSO. Finally, 300, 100, 33.3, 11.1, 3.7, 1.2 μM stock of each peptide in 5% DMSO/water were prepared by adding 129.2 μL water+4 μL peptide in DMSO.
20 μl of peptide, chetomin dilution, or DMSO/water control were added to the appropriate wells of a plate to achieve 200 μL final volumes in 0.3% DMSO/media. The plate was first incubated for 18-20 hours in normoxia incubator (37° C. in humidified 5% CO2, 20% O2 atmosphere). Then the plate was transferred to hypoxia incubator for 24 hours (37° C. in humidified 5% CO2, 1% O2 atmosphere)
6× LiveBLAzer™-FRET B/G (CCF4-AM) Substrate Mixture was prepared according to CellSensor™ HRE-bla ME-180 Cell-based Assay Protocol (Invitrogen) and added into each well. Solution A (CCF4-AM) was reconstituted in DMSO to a working concentration of 1 mM, divided in aliquots, and stored at −20° C. The 6× LiveBLAzer-FRET B/G (CCF4-AM) Substrate mixture was prepared by mixing 6 μl of Solution A, 60 μl of Solution B, and 934 μl Solution C.
The plates were removed from incubator and equilibrated to RT for a few minutes. Then 20 μl of 6× Substrate mixture was added to each well. The plates were then incubated at room temperature for 3 hr in the dark and read at 409 Ex/460Em and 409Ex/530Em using the “GeneBlazer-Tungsten with export” program on the Synergy 2.
The average percentage of maximum inhibition was obtained by comparing the peptide treated cells (30 μM) to DMSO vehicle control treated cells. The results are shown in the columns “ME-180 HIF Reporter EC50 (μM) −24 hr normoxia” and “18 h Avg % max inhibition at top conc (HIF Rptr-24 hrsnormoxia) (μM)” of Table 6.

With `CC[C@H](C)[C@H](NC(=O)[C@H](CCCNC(=N)N)NC(=O)[C@H](CC(=O)O)NC(=O)[C@H](CC(C)C)NC(=O)CNC(=O)[C@H](CCSC)NC(=O)[C@H](CCC(=O)O)NC(=O)[C@@H](NC(=O)[C@@H](NC(=O)[C@H](CC(C)C)NC(=O)[C@H](CO)NC(=O)[C@]1(C)CCCC=CCCC[C@](C)(NC(=O)[C@H](CC(=O)O)NC(=O)[C@@H](NC(=O)[C@H](Cc2ccccc2)NC(C)=O)[C@@H](C)CC)C(=O)N[C@@H](CCC(=O)O)C(=O)N[C@@H](C(C)C)C(=O)N[C@@H](CC(C)C)C(=O)N1)C(C)C)[C@@H](C)CC)C(=O)N[C@@H](CCCCN)C(=O)N[C@@H](CCC(=O)O)C(=O)N[C@@H](CC(C)C)C(=O)N1CCC[C@H]1C(=O)N[C@@H](CCC(=O)O)C(=O)N[C@@H](CC(C)C)C(=O)N[C@@H](Cc1c[nH]c2ccccc12)C(=O)N[C@@H](CC(C)C)C(N)=O` [SP-76] (Ac-FID[S5]EVL[S5]SLVIEMGLDRIKELPELWL-NH2; staple 4-8) the “18 h Avg % max inhibition at top conc (HIF Rptr-24 hrs normoxia) (μM)” value (“18 h Avg % max inhibition at top conc” for short) was “+ (<10: +)” and the EC50 was over 30 µM.
`CCCC[C@H](NC(=O)[C@H](CC(C)C)NC(=O)[C@@H](NC(=O)[C@H](CCC(=O)O)NC(=O)[C@H](CCC(=O)O)NC(=O)[C@H](CC(=O)O)NC(=O)[C@@H](NC(=O)[C@H](C)NC(C)=O)[C@@H](C)CC)C(C)C)C(=O)N[C@@]1(C)CCCC=CCCC[C@@](C)(C(=O)N[C@@H](CCCC)C(=O)N[C@@H](C)C(=O)N[C@@H](CC(C)C)C(=O)N[C@@H](CC(=O)O)C(=O)N[C@@H](CCCNC(=N)N)C(=O)N[C@H](C(N)=O)[C@@H](C)CC)NC(=O)[C@H]([C@@H](C)CC)NC(=O)[C@H](C(C)C)NC(=O)[C@H](CC(C)C)NC1=O` [SP-9] (Ac-AIDEEVL[Nle][S5]LVI[S5][Nle]ALDRI-NH2; staple 9-13) was tested, and the “18 h Avg % max inhibition at top conc” value was “+++ (≤25 but <50: +++)” and the EC50 was 15 to 30 µM.
For `CCCC[C@H](NC(=O)[C@H](CC(C)C)NC(=O)[C@@H](NC(=O)[C@H](CCC(=O)O)NC(=O)[C@H](CCC(=O)O)NC(=O)[C@H](CC(=O)O)NC(=O)[C@@H](NC(=O)[C@H](Cc1ccccc1)NC(C)=O)[C@@H](C)CC)C(C)C)C(=O)N[C@@]1(C)CCCC=CCCC[C@@](C)(C(=O)N[C@@H](CCCC)C(=O)N[C@@H](C)C(=O)N[C@@H](CC(C)C)C(=O)N[C@@H](C)C(=O)N[C@@H](CCCNC(=N)N)C(=O)N[C@H](C(N)=O)[C@@H](C)CC)NC(=O)[C@H]([C@@H](C)CC)NC(=O)[C@H](C(C)C)NC(=O)[C@H](CC(C)C)NC1=O` [SP-23] (Ac-FIDEEVL[Nle][S5]LVI[S5][Nle]ALARI-NH2; staple 9-13), the “18 h Avg % max inhibition at top conc” value was “++++ (≥50: ++++)” and the EC50 was 5 to 15 µM.
`CCCC[C@H](NC(=O)[C@H](CC(C)C)NC(=O)[C@@H](NC(=O)[C@H](CCC(=O)O)NC(=O)[C@H](CCC(=O)O)NC(=O)[C@H](CC(=O)O)NC(=O)[C@@H](NC(=O)[C@H](Cc1ccccc1)NC(C)=O)[C@@H](C)CC)C(C)C)C(=O)N[C@@]1(C)CCCC=CCCC[C@@](C)(C(=O)N[C@@H](CCCC)C(=O)N[C@@H](C)C(=O)N[C@@H](CC(C)C)C(=O)N[C@@H](CC(=O)O)C(=O)N[C@@H](CCCNC(=N)N)C(=O)N[C@@H](CCC(=O)O)C(N)=O)NC(=O)[C@H]([C@@H](C)CC)NC(=O)[C@H](C(C)C)NC(=O)[C@H](CC(C)C)NC1=O` [SP-42] (Ac-FIDEEVL[Nle][S5]LVI[S5][Nle]ALDRE-NH2; staple 9-13) was tested, and the “18 h Avg % max inhibition at top conc” value was “++ (≤10 but <25: ++)” and the EC50 was over 30 µM.
`CCCC[C@H](NC(=O)[C@H](CC(C)C)NC(=O)[C@H](C)NC(=O)[C@H](CCC(=O)O)NC(=O)[C@H](CCC(=O)O)NC(=O)[C@H](CC(=O)O)NC(=O)[C@@H](NC(=O)[C@H](Cc1ccccc1)NC(C)=O)[C@@H](C)CC)C(=O)N[C@@]1(C)CCCC=CCCC[C@@](C)(C(=O)N[C@@H](CCCC)C(=O)N[C@@H](C)C(=O)N[C@@H](CC(C)C)C(=O)N[C@@H](CC(=O)O)C(=O)N[C@@H](CCCNC(=N)N)C(=O)N[C@H](C(N)=O)[C@@H](C)CC)NC(=O)[C@H]([C@@H](C)CC)NC(=O)[C@H](C(C)C)NC(=O)[C@H](CC(C)C)NC1=O` [SP-14] (Ac-FIDEEAL[Nle][S5]LVI[S5][Nle]ALDRI-NH2; staple 9-13) was tested, and the “18 h Avg % max inhibition at top conc” value was “++++ (≥50: ++++)” and the EC50 was 5 to 15 µM.
